# Earlier results as cited in patent publication EP0134290A1, “Constant release rate solid dosage theophyllineformulation” (VEREX LABORATORIES, INC., priority 1983, dated 1985).
# Details: similar dose of regular theophylline; published; spread +- 2.1
compound,measurement,value
"Cn1c(=O)c2[nH]cnc2n(C)c1=O [regular theophylline, theophylline]",excretion half life,9.0 h
